According to patent US8080529B2, “Macrolides with anti-inflammatory activity” (Glaxo Group Limited, priority 2005, dated 2011):
Like-named read-outs stand apart in the source and are kept apart here.

Experiments:
TNF-α [1] = experiment: Lipopolysaccharide induced TNF-α production in Balb/cJ mice; format: in vivo; details: Mus musculus, ip, 1.5 h; 10 mg/kg intraperitoneally, 30 min before LPS; 90 min after LPS; read-out: % inhibition of TNF-α production (plasma)
IL-1α = experiment: Inhibition of IL-1 production by stimulated human peripheral blood leukocytes in vitro; format: cell-based; details: Homo sapiens, Leukocyte, read-out: Percentage of inhibition of IL-1α production
[2] = test system: human peripheral blood mononuclear cells (PBMC); experiment: Effects on human T-cell proliferation in vitro (3H-thymidine incorporation); format: cell-based; details: Homo sapiens, PBMC, read-out: Percentage of inhibition of proliferation of stimulated PBMC
Summary of the method: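 Proliferation of human peripheral blood mononuclear cells (PBMC) was assessed in the presence of test compounds. During the final 18 h of culture each well received 1 μCi of ^3H-thymidine. Cells were then collected onto a 96-well filter with a multiple cell harvester, and ^3H-thymidine incorporation was counted on a TopCount NXT to give percentage inhibition of proliferation.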

IL-8 = experiment: Inhibition of IL-8 production by stimulated human peripheral blood leukocytes in vitro; format: cell-based; details: Homo sapiens, Leukocyte, read-out: Percentage of inhibition of IL-8 production
Summary of the method: (§1)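 Cytokines in supernatants measured by sandwich ELISA after overnight stimulation (2 μg/mL LPS, 1 μg/mL PMA or 120 μg/mL zymosan) of healthy-donor leukocytes pretreated 2 h with 10 or 50 μM compound. Percent inhibition calculated relative to stimulated cells lacking compound.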

TNF-α [3] = experiment: Inhibition of TNF-α production by stimulated human peripheral blood leukocytes in vitro; format: cell-based; details: Homo sapiens, Leukocyte, read-out: Percentage of inhibition of TNF-α production
Summary of the method: as §1

Hep G2 = experiment: Cytotoxicity assay (MTT), Hep G2 cell line; format: cell-based; details: 24 h
Summary of the method: (§2)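 Hep G2 and A549 cells were cultured 24 h at 37° C in RPM medium with test compounds at 50 μM and 12.5 μM. MTT was added for 0.5-2 h and formazan read at 490 nm. Growth value calculated as OD490 treated/OD490 nontreated ×100.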

A549 = experiment: Cytotoxicity assay (MTT), A549 cell line; format: cell-based; details: 24 h
Summary of the method: as §2

IL-6 = experiment: Inhibition of IL-6 production by stimulated human peripheral blood leukocytes in vitro; format: cell-based; details: Homo sapiens, Leukocyte, read-out: Percentage of inhibition of IL-6 production
Summary of the method: as §1

SMILES | inhibition in vivo at 10 mg/kg (TNF-α [1]) | inhibition at 10 µM (IL-1α; LPS-stimulated PBL) | inhibition at 10 µM (IL-1α; PMA-stimulated PBL) | inhibition at 10 µM (IL-1α; zymosan-stimulated PBL) | inhibition at 50 µM (IL-1α; LPS-stimulated PBL) | inhibition at 50 µM (IL-1α; PMA-stimulated PBL) | inhibition at 50 µM (IL-1α; zymosan-stimulated PBL) | inhibition at 10 µM ([2]; PHA) | inhibition at 50 µM ([2]; PHA) | inhibition at 10 µM ([2]; PMA + iono.) | inhibition at 50 µM ([2]; PMA + iono.) | inhibition at 10 µM (IL-8; LPS-stimulated PBL) | inhibition at 10 µM (IL-8; PMA-stimulated PBL) | inhibition at 10 µM (IL-8; zymosan-stimulated PBL) | inhibition at 50 µM (IL-8; LPS-stimulated PBL) | inhibition at 50 µM (IL-8; PMA-stimulated PBL) | inhibition at 50 µM (IL-8; zymosan-stimulated PBL) | inhibition at 10 µM (TNF-α [3]; LPS-stimulated PBL) | inhibition at 10 µM (TNF-α [3]; PMA-stimulated PBL) | inhibition at 10 µM (TNF-α [3]; zymosan-stimulated PBL) | other results
CC[C@H]1OC(=O)[C@H](C)[C@@H](O[C@H]2C[C@@](C)(OC)[C@@H](OC(=O)CCN(CC)CC)[C@H](C)O2)[C@H](C)[C@@H](O[C@@H]2O[C@H](C)C[C@H](N(C)C)[C@H]2O)[C@](C)(O)C[C@@H](C)CN(C)[C@H](C)[C@@H](O)[C@]1(C)O [Example 48, 4″-O-(3-diethylamino-propionyl)-azithromycin] | 52% | 64% | 38% | 85% | 79% | 78% | 92% | 93% | 100% | 81% | 100% | 36% | 25% | 49% | 85% | 83% | 90% | 49% | 31% | 82% | inhibition at 50 µM (TNF-α [3]; LPS-stimulated PBL): 87%; inhibition at 50 µM (TNF-α [3]; PMA-stimulated PBL): 90%; inhibition at 50 µM (TNF-α [3]; zymosan-stimulated PBL): 97%; Percentage of inhibition of cell growth (Hep G2; 12.5 μM): 0%; Percentage of inhibition of cell growth (Hep G2; 50 μM): 9%; Percentage of inhibition of cell growth (A549; 12.5 μM): 0%; Percentage of inhibition of cell growth (A549; 50 μM): 0%; inhibition at 10 µM (IL-6; LPS-stimulated PBL): 57%; inhibition at 10 µM (IL-6; PMA-stimulated PBL): 30%; inhibition at 10 µM (IL-6; zymosan-stimulated PBL): 73%; inhibition at 50 µM (IL-6; LPS-stimulated PBL): 97%; inhibition at 50 µM (IL-6; PMA-stimulated PBL): 84%; inhibition at 50 µM (IL-6; zymosan-stimulated PBL): 97%
CC[C@H]1OC(=O)[C@H](C)[C@@H](O[C@H]2C[C@@](C)(OC)[C@@H](O)[C@H](C)O2)[C@H](C)[C@@H](O[C@@H]2O[C@H](C)C[C@H](N(C)C)[C@H]2O)[C@](C)(O)C[C@@H](C)CN(C)[C@H](C)[C@@H](O)[C@]1(C)O [azithromycin, reference compound] | 54% | 28% | 0% | 20% | 48% | 0% | 75% | 5% | 29% | 9% | 31% | 0% | 0% | 0% | 0% | 0% | 0% | 36% | 0% | 6% | inhibition at 50 µM (TNF-α [3]; LPS-stimulated PBL): 20%; inhibition at 50 µM (TNF-α [3]; PMA-stimulated PBL): 0%; inhibition at 50 µM (TNF-α [3]; zymosan-stimulated PBL): 64%; Percentage of inhibition of cell growth (Hep G2; 12.5 μM): 0%; Percentage of inhibition of cell growth (Hep G2; 50 μM): 0%; Percentage of inhibition of cell growth (A549; 12.5 μM): 0%; Percentage of inhibition of cell growth (A549; 50 μM): 0%; inhibition at 10 µM (IL-6; LPS-stimulated PBL): 15%; inhibition at 10 µM (IL-6; PMA-stimulated PBL): 0%; inhibition at 10 µM (IL-6; zymosan-stimulated PBL): 20%; inhibition at 50 µM (IL-6; LPS-stimulated PBL): 40%; inhibition at 50 µM (IL-6; PMA-stimulated PBL): 0%; inhibition at 50 µM (IL-6; zymosan-stimulated PBL): 75%
CC[C@H]1OC(=O)[C@H](C)[C@@H](O[C@H]2C[C@@](C)(OC)[C@@H](OC(=O)CCN(CC)CC)[C@H](C)O2)[C@H](C)[C@@H](O[C@@H]2O[C@H](C)C[C@H](N(C)C)[C@H]2O)[C@](C)(O)C[C@@H](C)CN(C)[C@H](C)[C@H]2OC(=O)O[C@@]21C [Example 1, 11,12-Carbonate-11,12-dideoxy-4″-O-(3-diethylamino-propionyl)-azithromycin] | 64% | 67% | 0% | 73% | 93% | 84% | 83% | 95% | 99% | 90% | 96% | 0% | 0% | 29% | 97% | 100% | 100% | 54% | 0% | 88% | inhibition at 50 µM (TNF-α [3]; LPS-stimulated PBL): 100%; inhibition at 50 µM (TNF-α [3]; PMA-stimulated PBL): 94%; inhibition at 50 µM (TNF-α [3]; zymosan-stimulated PBL): 100%; Percentage of inhibition of cell growth (Hep G2; 12.5 μM): 0%; Percentage of inhibition of cell growth (Hep G2; 50 μM): 15%; Percentage of inhibition of cell growth (A549; 12.5 μM): 0%; Percentage of inhibition of cell growth (A549; 50 μM): 3%; inhibition at 10 µM (IL-6; LPS-stimulated PBL): 10%; inhibition at 10 µM (IL-6; PMA-stimulated PBL): 0%; inhibition at 10 µM (IL-6; zymosan-stimulated PBL): 29%; inhibition at 50 µM (IL-6; LPS-stimulated PBL): 94%; inhibition at 50 µM (IL-6; PMA-stimulated PBL): 96%; inhibition at 50 µM (IL-6; zymosan-stimulated PBL): 100%
CC[C@H]1OC(=O)[C@H](C)[C@@H](O[C@H]2C[C@@](C)(OC)[C@@H](O)[C@H](C)O2)[C@H](C)[C@@H](O[C@@H]2O[C@H](C)C[C@H](N(C)C)[C@H]2O)[C@](C)(OC)C[C@@H](C)C(=O)[C@H](C)[C@@H](O)[C@]1(C)O [clarithromycin, reference compound] | 63% | 0% | 26% | 36% | 0% | 33% | 59% | 0% | 7% | 9% | 14% | 23% | 33% | 0% | 0% | 0% | 0% | 0% | 0% | 0% | inhibition at 50 µM (TNF-α [3]; LPS-stimulated PBL): 0%; inhibition at 50 µM (TNF-α [3]; PMA-stimulated PBL): 0%; inhibition at 50 µM (TNF-α [3]; zymosan-stimulated PBL): 0%; Percentage of inhibition of cell growth (Hep G2; 12.5 μM): 0%; Percentage of inhibition of cell growth (Hep G2; 50 μM): 0%; Percentage of inhibition of cell growth (A549; 12.5 μM): 0%; Percentage of inhibition of cell growth (A549; 50 μM): 0%; inhibition at 10 µM (IL-6; LPS-stimulated PBL): 11%; inhibition at 10 µM (IL-6; PMA-stimulated PBL): 0%; inhibition at 10 µM (IL-6; zymosan-stimulated PBL): 28%; inhibition at 50 µM (IL-6; LPS-stimulated PBL): 0%; inhibition at 50 µM (IL-6; PMA-stimulated PBL): 0%; inhibition at 50 µM (IL-6; zymosan-stimulated PBL): 0%
